Experimental data as given in US11554171B2, “Compounds and methods for the targeted degradation of bromodomain-containing proteins” (Arvinas Operations, Inc., priority 2015, dated 2023).

System: c-myc in 22RV-1 cells
Test: Human c-myc ELISA assay
Type: cell-based
Details: Homo sapiens; for Emax: 22Rv1, 18 h, read-out: Degradation of BRD4: Maximum inhibition (%) c-Myc ELISA in 22RV1 cells; for DC50: 22Rv1, read-out: Degradation of BRD4: DC50 (uM) c-Myc ELISA in 22RV1 cells
Method: 22RV-1 cells are seeded at 30,000 cells/well at a volume of 75 μL/well in RPMI+10% FBS media in 96-well plates and grown overnight at 37 C. Cells are dosed with compounds at 4× concentration diluted in 0.4% DMSO; compounds are serially diluted 1:3 for 8-point dose curve. 25 ul of compounds is added to cells for a final concentration starting at 300 nM-0.3 nM or 1 uM-1 nM in 0.1% DMSO and incubated for 18 hrs. Media is aspirated, cells washed 1× with PBS and aspirated. Cells are lysed in 50 ul RIPA buffer (50 mM Tris pH8, 150 mM NaCl, 1% Tx-100, 0.1% SDS, 0.5% sodium deoxycholate) supplemented with protease and phosphatase inhibitors. Plates are incubated on ice for 15 minutes then centrifuged at 4 C for 10 min at 4000 rpm. Add 50 ul of cleared lysate from 96-well assay plate into 96-well c-myc ELISA plate (Novex, Life Technologies Catalog #KH02041). Reconstitute c-myc standard with standard diluent buffer; standard curve range is 333 pg/ml-0 pg/ml, diluted 1:2 for 8-point dose curve. The rest of the assay was performed following the protocol from the c-myc ELISA kit. Data is analyzed and plotted using GraphPad Prism software. Compounds described in this application were assayed and c-myc suppression potency is listed in the following Table (A: DC50<10 nM; B: DC50 10-100 nM; C: DC50: 100-1000 nM; D: DC50>1000 nM)

DC50 [µM]	SMILES	Emax [%]
0.01 to 0.1	Cc1ncsc1-c1ccc(CNC(=O)[C@@H]2C[C@@H](O)CN2C(=O)[C@@H](NC(=O)COCCCOc2ccc(-c3cnc(NC(=O)C[C@@H]4N=C(c5ccc(Cl)cc5)c5c(sc(C)c5C)-n5c(C)nnc54)cn3)cc2)C(C)(C)C)cc1 [Example 21, (2S,4R)-1-[(2S)-2-(2-{3-[4-(5-{2-[(9S)-7-(4-chlorophenyl)-4,5,13-trimethyl-3-thia-1,8,11,12-tetraazatricyclo[8.3.0.0^2,^6]trideca-2(6),4,7,10,12-pentaen-9-yl]acetamido}pyrazin-2-yl)phenoxy]propoxy}acetamido)-3,3-dimethylbutanoyl]-4-hydroxy-N-{[4-(4-methyl-1,3-thiazol-5-yl)phenyl]methyl}pyrrolidine-2-carboxamide]	91
0.01 to 0.1	Cc1ncsc1-c1ccc(CNC(=O)[C@@H]2C[C@@H](O)CN2C(=O)[C@@H](NC(=O)COCCCOc2ccc(-c3cnc(NC(=O)C[C@@H]4N=C(c5ccc(Cl)cc5)c5c(sc(C)c5C)-n5c(C)nnc54)cn3)cc2F)C(C)(C)C)cc1 [Example 22]	94
0.01 to 0.1	Cc1ncsc1-c1ccc(CNC(=O)[C@@H]2C[C@@H](O)CN2C(=O)[C@@H](NC(=O)COCCCOc2ccc(-c3ccc(NC(=O)C[C@@H]4N=C(c5ccc(Cl)cc5)c5c(sc(C)c5C)-n5c(C)nnc54)cn3)cc2F)C(C)(C)C)cc1 [Example 23]	91
0.01 to 0.1	Cc1ncsc1-c1ccc(CNC(=O)[C@@H]2C[C@@H](O)CN2C(=O)[C@@H](NC(=O)COCCCOc2ccc(-c3ccc(NC(=O)C[C@@H]4N=C(c5ccc(Cl)cc5)c5c(sc(C)c5C)-n5c(C)nnc54)c(F)c3)nc2)C(C)(C)C)cc1 [Example 24]	87.5
0.01 to 0.1	Cc1ncsc1-c1ccc(CNC(=O)[C@@H]2C[C@@H](O)CN2C(=O)[C@@H](NC(=O)COCCCOCCCOc2ccc([C@H](C)NC(=O)C[C@@H]3N=C(c4ccc(Cl)cc4)c4c(sc(C)c4C)-n4c(C)nnc43)cc2)C(C)(C)C)cc1 [Example 25, (2S,4R)-1-[(2S)-2-{2-[3-(3-{4-[(1S)-1-{2-[(9S)-7-(4-chlorophenyl)-4,5,13-trimethyl-3-thia-1,8,11,12-tetraazatricyclo[8.3.0.0^2,^6]trideca-2(6),4,7,10,12-pentaen-9-yl]acetamido}ethyl]phenoxy}propoxy)propoxy]acetamido}-3,3-dimethylbutanoyl]-4-hydroxy-N-{[4-(4-methyl-1,3-thiazol-5-yl)phenyl]methyl}pyrrolidine-2-carboxamide]	100
0.01 to 0.1	Cc1ncsc1-c1ccc(CNC(=O)[C@@H]2C[C@@H](O)CN2C(=O)[C@@H](NC(=O)COCCCOCCCOc2ccc(C3(NC(=O)C[C@@H]4N=C(c5ccc(Cl)cc5)c5c(sc(C)c5C)-n5c(C)nnc54)CC3)cc2)C(C)(C)C)cc1 [Example 27, (2S,4R)-1-[(2S)-2-[2-(3-{3-[4-(1-{2-[(9S)-7-(4-chlorophenyl)-4,5,13-trimethyl-3-thia-1,8,11,12-tetraazatricyclo[8.3.0.0^2,^6]trideca-2(6),4,7,10,12-pentaen-9-yl]acetamido}cyclopropyl)phenoxy]propoxy}propoxy)acetamido]-3,3-dimethylbutanoyl]-4-hydroxy-N-{[4-(4-methyl-1,3-thiazol-5-yl)phenyl]methyl}pyrrolidine-2-carboxamide]	100
0.01 to 0.1	Cc1ncsc1-c1ccc(CNC(=O)[C@@H]2C[C@@H](O)CN2C(=O)[C@@H](NC(=O)COCCCOCCCOc2ccc(NC(=O)C[C@@H]3N=C(c4ccc(Cl)cc4)c4c(sc(C)c4C)-n4c(C)nnc43)nc2)C(C)(C)C)cc1 [Example 28]	100
0.01 to 0.1	Cc1ncsc1-c1ccc(CNC(=O)[C@@H]2C[C@@H](O)CN2C(=O)[C@@H](NC(=O)COCCOCCCOc2ccc([C@@H](C)NC(=O)C[C@@H]3N=C(c4ccc(Cl)cc4)c4c(sc(C)c4C)-n4c(C)nnc43)cc2)C(C)(C)C)cc1 [Example 29]	96.8
0.01 to 0.1	Cc1ncsc1-c1ccc([C@H](C)NC(=O)[C@@H]2C[C@@H](O)CN2C(=O)[C@@H](NC(=O)COCCOCCCOc2ccc([C@@H](C)NC(=O)C[C@@H]3N=C(c4ccc(Cl)cc4)c4c(sc(C)c4C)-n4c(C)nnc43)cc2)C(C)(C)C)cc1 [Example 30]	96
0.1 to 1	Cc1ncoc1-c1ccc(CNC(=O)[C@@H]2C[C@@H](O)CN2C(=O)[C@@H](NC(=O)COCCOCCCOc2ccc([C@@H](C)NC(=O)C[C@@H]3N=C(c4ccc(Cl)cc4)c4c(sc(C)c4C)-n4c(C)nnc43)cc2)C(C)(C)C)cc1 [Example 31]	65
0.01 to 0.1	Cc1ncsc1-c1ccc([C@H](C)NC(=O)[C@@H]2C[C@@H](O)CN2C(=O)[C@@H](NC(=O)COCCOCCCOc2ccc([C@H](C)NC(=O)C[C@@H]3N=C(c4ccc(Cl)cc4)c4c(sc(C)c4C)-n4c(C)nnc43)cc2)C(C)(C)C)cc1 [Example 34]	99.7
> 1	Cc1ncsc1-c1ccc(CNC(=O)[C@@H]2C[C@@H](O)CN2C(=O)[C@@H](NC(=O)COCCn2ccc(-c3ccc([C@@H](C)NC(=O)C[C@@H]4N=C(c5ccc(Cl)cc5)c5c(sc(C)c5C)-n5c(C)nnc54)cc3)cc2=O)C(C)(C)C)cc1 [Example 35]	37
0.01 to 0.1	Cc1ncsc1-c1ccc(CNC(=O)[C@@H]2C[C@@H](O)CN2C(=O)[C@@H](NC(=O)COCCOc2cc(-c3ccc([C@@H](C)NC(=O)C[C@@H]4N=C(c5ccc(Cl)cc5)c5c(sc(C)c5C)-n5c(C)nnc54)cc3)ccn2)C(C)(C)C)cc1 [Example 36, (2S,4R)-1-[(2S)-2-(2-{2-[(4-{4-[(1R)-1-{2-[(9S)-7-(4-chlorophenyl)-4,5,13-trimethyl-3-thia-1,8,11,12-tetraazatricyclo[8.3.0.0^2,^6]trideca-2(6),4,7,10,12-pentaen-9-yl]acetamido}ethyl]phenyl}pyridin-2-yl)oxy]ethoxy}acetamido)-3,3-dimethylbutanoyl]-4-hydroxy-N-{[4-(4-methyl-1,3-thiazol-5-yl)phenyl]methyl}pyrrolidine-2-carboxamide]	97
0.01 to 0.1	Cc1ncsc1-c1ccc(CNC(=O)[C@@H]2C[C@@H](O)CN2C(=O)[C@@H](NC(=O)COCCCOCCCOc2ccc(C(C)(C)NC(=O)C[C@@H]3N=C(c4ccc(Cl)cc4)c4c(sc(C)c4C)-n4c(C)nnc43)cc2)C(C)(C)C)cc1 [Example 37]	96
0.01 to 0.1	Cc1ncsc1-c1ccc(CNC(=O)[C@@H]2C[C@@H](O)CN2C(=O)[C@@H](NC(=O)COCCOCCOCCOCCNC(=O)C[C@@H]2N=C(c3ccc(Cl)cc3)c3c(sc(C)c3C)-n3c(C)nnc32)C(C)(C)C)cc1 [Example 38]	94
0.01 to 0.1	Cc1ncsc1-c1ccc(CNC(=O)[C@@H]2C[C@@H](O)CN2C(=O)[C@@H](NC(=O)COCCCOCC#Cc2ccc([C@@H](C)NC(=O)C[C@@H]3N=C(c4ccc(Cl)cc4)c4c(sc(C)c4C)-n4c(C)nnc43)cc2)C(C)(C)C)cc1 [Example 39, (2S,4R)-1-[(2S)-2-(2-{3-[(3-{4-[(1R)-1-{2-[(9S)-7-(4-chlorophenyl)-4,5,13-trimethyl-3-thia-1,8,11,12-tetraazatricyclo[8.3.0.0^2,^6]trideca-2(6),4,7,10,12-pentaen-9-yl]acetamido}-ethyl]phenyl}prop-2-yn-1-yl)oxy]propoxy}acetamido)-3,3-dimethylbutanoyl]-4-hydroxy-N-{[4-(4-methyl-1,3-thiazol-5-yl)phenyl]methyl}pyrrolidine-2-carboxamide]	99
0.01 to 0.1	Cc1ncsc1-c1ccc(CNC(=O)[C@@H]2C[C@@H](O)CN2C(=O)[C@@H](NC(=O)COCCCOCC#Cc2ccc([C@H](C)NC(=O)C[C@@H]3N=C(c4ccc(Cl)cc4)c4c(sc(C)c4C)-n4c(C)nnc43)cc2)C(C)(C)C)cc1 [Example 40]	97.5

SMILES	DC50 [µM]	Emax [%]
Cc1ncsc1-c1ccc(CNC(=O)[C@@H]2C[C@@H](O)CN2C(=O)[C@@H](NC(=O)COCCCCn2cc(-c3ccc([C@@H](C)NC(=O)C[C@@H]4N=C(c5ccc(Cl)cc5)c5c(sc(C)c5C)-n5c(C)nnc54)cc3)cn2)C(C)(C)C)cc1 [Example 33, (2S,4R)-1-[(2S)-2-{2-[4-(4-{4-[(1R)-1-{2-[(9S)-7-(4-chlorophenyl)-4,5,13-trimethyl-3-thia-1,8,11,12-tetraazatricyclo[8.3.0.0^2,^6]trideca-2(6),4,7,10,12-pentaen-9-yl]acetamido}ethyl]phenyl}-1H-pyrazol-1-yl)butoxy]acetamido}-3,3-dimethylbutanoyl]-4-hydroxy-N-{[4-(4-methyl-1,3-thiazol-5-yl)phenyl]methyl}pyrrolidine-2-carboxamide]	0.01 to 0.1	100
